Experimental findings from patent US8314126B2, “Disubstituted phenylpiperdines/piperazines as modulators of dopamine neurotransmission” (NSAB, Filial af Neurosearch Sweden AB, Sverige, priority 2004, dated 2012) are described below.

Where a name gives a salt, the structure may show the parent alone.

For one data set, the system named is drug-naive rats. Kind of data set: Locomotor activity in drug-naive rats. The following applies: drug-naive habituated rats, 11 μmol/kg, recorded between 30 and 60 minutes, ± SEM.
On to `CCN1CCC(c2cccc(S(C)(=O)=O)c2F)CC1` [drawing 36], for which the Locomotor activity was found to be 2254 ± 804 counts/30 min. Take `COCCN1CCC(c2cccc(S(C)(=O)=O)c2F)CC1` [drawing 38]: the Locomotor activity is recorded as 1836 ± 504 (P = 0.064) counts/30 min.

Staying with this data set, now noted: drug-naive habituated rats, 33 μmol/kg, recorded between 30 and 60 minutes, ± SEM.
In the case of `CCN1CCC(c2cccc(S(C)(=O)=O)c2F)CC1` [drawing 36], the Locomotor activity is 2499 ± 766 (P = 0.1) counts/30 min. Same read-out and setting: in the case of `COCCN1CCC(c2cccc(S(C)(=O)=O)c2F)CC1` [drawing 38] it was 1258 ± 623 counts/30 min.

Staying with this data set, now noted: drug-naive habituated rats, 100 μmol/kg, recorded between 30 and 60 minutes, ± SEM.
Regarding `CCN1CCC(c2cccc(S(C)(=O)=O)c2F)CC1` [drawing 36], the Locomotor activity is on record as 2418 ± 703 (P = 0.1) counts/30 min.

With `COCCN1CCC(c2cccc(S(C)(=O)=O)c2F)CC1` [drawing 38], the Locomotor activity is 1085 ± 211 counts/30 min.

Still in this data set, the particulars now being: drug-naive rats, 11 μmol/kg, recorded for 60 minutes, ± SEM.
The compound `CCN1CCC(c2cccc(S(C)(=O)=O)c2F)CC1` [drawing 29] came in with a Locomotor activity of 13113 ± 1795 counts/60 min.

Still in this data set, the particulars now being: drug-naive rats, 33 μmol/kg, recorded for 60 minutes, ± SEM.
Take `CCN1CCC(c2cccc(S(C)(=O)=O)c2F)CC1` [drawing 29]: the Locomotor activity was determined as 12744 ± 1291 counts/60 min.

Still in this data set, the particulars now being: drug-naive rats, 100 μmol/kg, recorded for 60 minutes, ± SEM.
`CCN1CCC(c2cccc(S(C)(=O)=O)c2F)CC1` [drawing 29] displayed a Locomotor activity of 12530 ± 2577 counts/60 min.

Test system in another data set: not given
Assay: not given
Settings: not given
A word on the melting point: it is the temperature of the solid-liquid transition. On to `CCN1CCC(c2cccc(C(C)=O)c2F)CC1`, for which the melting point fell in the range of 199 to 202 °C. The same measure, in the same setting: the result for `CCN1CCC(c2cccc(S(=O)(=O)N(C)C)c2F)CC1` (as salt: fumaric acid salt) reads 151 to 152 °C.

As to `CCN1CCC(c2cccc(C(=O)C(F)(F)F)c2F)CC1` (as salt: fumaric acid salt), the melting point lay in the range of 109 to 110 °C. For the compound `CCCN1CCN(c2cccc(C#N)c2C(F)(F)F)CC1` (as salt: hydrochloric acid salt), the melting point lay in the range of 234 to 236 °C. The same measure, in the same setting: the result for `CCCN1CCN(c2cccc(S(C)(=O)=O)c2F)CC1` (as salt: hydrochloric acid salt) reads 241 to 243 °C; that for `CCN1CCC(c2cccc(S(=O)(=O)C(F)(F)F)c2F)CC1` (as salt: hydrochloric acid salt), 189 to 191 °C. Take `CCN1CCN(c2cccc(S(C)(=O)=O)c2F)CC1` (as salt: hydrochloric acid salt): the melting point was in the range of 214 to 216 °C. On to `CCCN1CCC(c2cccc(S(C)(=O)=O)c2F)CC1` (as salt: hydrochloric acid salt) [Example 1, 4-[2-FLUORO-3-(METHYLSULFONYL)PHENYL]-1-PROPYLPIPERIDINE], for which the melting point was in the range of 255 to 257 °C. `CCCN1CCC(c2cccc(S(C)(=O)=O)c2Cl)CC1` (as salt: hydrochloric acid salt) [Example 3, 4-[2-CHLORO-3-(METHYLSULFONYL)PHENYL]-1-PROPYLPIPERIDINE] displayed a melting point of 250 to 252 °C. Same read-out and setting: in the case of `CCCN1CCC(c2cccc(S(C)(=O)=O)c2C)CC1` (as salt: hydrochloric acid salt) [Example 4, 4-[2-METHYL-3-(METHYLSULFONYL)PHENYL]-1-PROPYLPIPERIDINE] it was 233 to 235 °C; in that of `CCCN1CCC(c2cccc(S(C)(=O)=O)c2N)CC1` (as salt: hydrochloric acid salt) [Example 6, 2-(METHYLSULFONYL)-6-(1-PROPYLPIPERIDIN-4-YL)ANILINE], 232 to 233 °C; in that of `CCCN1CCC(c2cccc(C(F)(F)F)c2C#N)CC1` (as salt: hydrochloric acid salt) [Example 7, 2-(1-PROPYLPIPERIDIN-4-YL)-6-(TRIFLUOROMETHYL)BENZONITRILE], 272 to 274 °C.

`CCCN1CCC(c2cccc(C(F)(F)F)c2OC)CC1` (as salt: hydrochloric acid salt) [Example 8, 4-[2-METHOXY-3-(TRIFLUOROMETHYL)PHENYL]-1-PROPYLPIPERIDINE] registered a melting point of 235.5 °C.

In turn, `CCCN1CCN(c2cccc(C(F)(F)F)c2F)CC1` (as salt: hydrochloric acid salt) [Example 9, 1-[2-FLUORO-3-(TRIFLUOROMETHYL)PHENYL]-4-PROPYLPIPERAZINE] gave a melting point of 180 to 181 °C. `COCCN1CCN(c2cccc(C(F)(F)F)c2F)CC1` (as salt: hydrochloric acid salt) [Example 10, 1-[2-FLUORO-3-(TRIFLUOROMETHYL)PHENYL]-4-(2-METHOXYETHYL)PIPERAZINE] showed a melting point of 170 to 171 °C. On the same count and under the same terms, in the case of `CCCN1CCN(c2cccc(Cl)c2Cl)CC1` (as salt: hydrochloric acid salt) [Example 11, 1-(2,3-DICHLOROPHENYL)-4-PROPYLPIPERAZINE] it was 220 to 221 °C; in that of `CCCN1CCC(c2cccc(C#N)c2C(F)(F)F)CC1` (as salt: hydrochloric acid salt) [Example 13, 3-(1-PROPYLPIPERIDIN-4-YL)-2-(TRIFLUORO-METHYL)BENZONITRILE], 266 to 269 °C; in that of `CS(=O)(=O)c1cccc(C2CCN(CCC3OCCO3)CC2)c1F` (as salt: hydrochloric acid salt) [Example 26, 1-[2-(1,3-DIOXOLAN-2-YL)ETHYL]-4-[2-FLUORO-3-(METHYLSULFONYL)PHENYL]-PIPERIDINE], 224 to 225 °C. In the case of `OCCN1CCC(c2cccc(C(F)(F)F)c2F)CC1` (as salt: hydrochloric acid salt) [Example 27, 2-{4-[2-FLUORO-3-(TRIFLUOROMETHYL)PHENYL]PIPERIDIN-1-YL}ETHANOL], the melting point fell in the range of 224 to 226 °C. Same read-out and setting: the result for `CCCN1CCC(c2cccc(C(F)(F)F)c2O)CC1` (as salt: hydrochloric acid salt) [Example 29, 2-(1-PROPYLPIPERIDIN-4-YL)-6-(TRIFLUOROMETHYL)PHENOL] reads 218 to 220 °C; that for `CCCN1CCC(c2cccc(OC(F)(F)F)c2O)CC1` (as salt: hydrochloric acid salt) [Example 30, 2-(1-PROPYLPIPERIDIN-4-YL)-6-(TRIFLUOROMETHOXY)PHENOL], 203 to 205 °C; that for `OCCCN1CCC(c2cccc(C(F)(F)F)c2F)CC1` (as salt: hydrochloric acid salt) [Example 32, 3-{4-[2-FLUORO-3-(TRIFLUOROMETHYL)PHENYL]PIPERIDIN-1-YL}PROPAN-1-OL], 259 to 261 °C. Compound `C=CCN1CCC(c2cccc(S(C)(=O)=O)c2F)CC1` (as salt: hydrochloric acid salt) [Example 40, 1-ALLYL-4-[2-FLUORO-3-(METHYLSULFONYL)PHENYL]PIPERIDINE] returned a melting point of 259 to 261 °C. On the same count and under the same terms, in the case of `COCCN1CCC(c2cccc(C(F)(F)F)c2F)CC1` (as salt: hydrochloric acid salt) [Example 47, 4-[2-FLUORO-3-(TRIFLUOROMETHYL)PHENYL]-1-(2-METHOXYETHYL)PIPERIDINE] it was 180 to 181 °C. On to `C=CCN1CCC(c2cccc(C(F)(F)F)c2F)CC1` (as salt: hydrochloric acid salt) [Example 70, 1-ALLYL-4-[2-FLUORO-3-(TRIFLUOROMETHYL)PHENYL]PIPERIDINE], for which the melting point was in the range of 224 to 226 °C. Same read-out and setting: in the case of `CCCN1CCC(c2cccc(C(F)(F)F)c2F)CC1` (as salt: hydrochloric acid salt) [Example 71, 4-[2-FLUORO-3-(TRIFLUOROMETHYL)PHENYL]-1-PROPYLPIPERIDINE] it was 258 to 260 °C; in that of `CCN1CCC(c2cccc(S(C)(=O)=O)c2Cl)CC1` (as salt: hydrochloride) [Example 28, 4-[2-CHLORO-3-(METHYLSULFONYL)PHENYL]-1-ETHYLPIPERIDINE], 264 to 265 °C; in that of `CCN1CCC(c2cccc(S(C)(=O)=O)c2F)CC1` (as salt: maleic acid salt) [Example 2, 1-ETHYL-4-[2-FLUORO-3-(METHYLSULFONYL)PHENYL]-PIPERIDINE], 112 to 113 °C. The same measure, in the same setting: in the case of `CCN1CCC(c2cccc(OS(=O)(=O)C(F)(F)F)c2F)CC1` (as salt: methanesulfonate) [Example 34, 3-(1-ETHYLPIPERIDIN-4-YL)-2-FLUOROPHENYL TRIFLUOROMETHANESULFONATE] it was 158 to 159 °C.

The next data set deals with DOPAC (3,4-dihydroxyphenylacetic acid) in the rat striatum. Nature of the data set: Increase of DOPAC in the rat striatum (in vivo neurochemistry). The following applies: Rattus norvegicus, sc, read-out: ED50 DOPAC. The text has this: After the behavioural activity sessions, the rats were decapitated and their brains rapidly taken out and put on an ice-cold petri-dish. The limbic forebrain, the striatum, the frontal cortex and the remaining hemispheral parts of each rat were dissected and frozen. Each brain part was subsequently analyzed with respect to its content of monoamines and their metabolites.
The monoamine transmitter substances (NA (noradrenaline), DA (dopamine), 5-HT (serotonin)) as well as their amine (NM (normethanephrine), 3-MT (3-methoxytyramine)) and acid (DOPAC (3,4-dihydroxylphenylacetic acid), 5-HIAA (5-hydroxyindoleacetic acid), HVA (homovamllic acid)) metabolites are quantified in brain tissue homogenates by HPLC separations and electrochemical detection
The analytical method is based on two chromatographic separations dedicated for amines or acids. Two chromatographic systems share a common auto injector with a 10-port valve and two sample loops for simultaneous injection on the two systems. Both systems are equipped with a reverse phase column (Luna C18(2), dp 3 μM, 50*2 mm i.d., Phenomenex) and electrochemical detection is accomplished at two potentials on glassy carbon electrodes (MF-1000, Bioanalytical Systems, Inc.). The column effluent is passed via a T-connection to the detection cell or to a waste outlet. This is accomplished by two solenoid valves, which block either the waste or detector outlet. By preventing the chromatographic front from reaching the detector, better detection conditions are achieved. […] Detection potentials relative to Ag/AgCl reference are 0.45 and 0.60V. […] Detection potentials relative to Ag/AgCl reference are 0.45 and 0.65V.
ED50 values for the increase of DOPAC in striatum are calculated by curve fitting.
One may read the ED50 as the dose at which the effect has come halfway, by size or by number of responders. For `CCCN1CCC(c2cccc(C(F)(F)F)c2)CC1` [reference compound], the ED50 was 84 µmol/kg.

Still in this data set, the particulars now being: sc; increase of DOPAC in rat striatum after systemic administration (s.c.); maximal effects limited to 350-400% of control; range covers 95% of fits; read-out: ED50 DOPAC.
`CCN1CCC(c2cccc(C(=O)C(F)(F)F)c2F)CC1`: the median effective dose (ED50) stood at 12 µmol/kg.

As for `CCN1CCC(c2cccc(S(C)(=O)=O)c2F)CC1` [drawing 10], the ED50 turned out to be 68 µmol/kg. On the same count and under the same terms, the result for `COCCN1CCC(c2cccc(S(C)(=O)=O)c2F)CC1` [drawing 12] reads 84 µmol/kg; that for `COCCN1CCC(c2cccc(S(C)(=O)=O)c2)CC1` [reference compound], 208 µmol/kg.
